Results published in publication PMC8876800, “Neuropsychopharmacology of Emerging Drugs of Abuse: meta- and para-Halogen-Ring-Substituted α-PVP (“flakka”) Derivatives” (International Journal of Molecular Sciences, 2022).

Tests used:
Swiss CD-1 mice [1] = experiment: Horizontal locomotor activity (HLA); assay type: in vivo; settings: for HLA vs saline group: 2.5 mg kg−1 i.p., distance travelled in 60 min; for duration of the increase in locomotor activity: medium dose 10 mg kg−1 i.p., time course
Method: (§1) Male Swiss CD-1 mice (Janvier, Le Genest, France) weighing 30–35 g (6–8 weeks old) were randomly assigned to an experimental group. The animals were housed (seven per cage) in polycarbonate cages with wood-derived bedding, in temperature-controlled conditions (22 ± 1 °C) under a 12 h light/dark cycle and had ad libitum access to food (standard laboratory diet, Panlab SL, Barcelona, Spain) and drinking water. All animal care and experimental protocols in this study were approved by the Animal Ethics Committee of the University of Barcelona under the supervision of the Autonomous Government of Catalonia and are in accordance with the guidelines of the European Community Council (2010/63/EU), as amended by Regulation (EU) 2019/1010. Efforts were made to minimize animal use and suffering. All studies involving animals comply with the ARRIVE guidelines. The animals were supervised before and throughout the study, immediately after injection, and during the behavioral experiment as well as 24 h after injection, and different parameters were visually evaluated for humane endpoints, such as abnormal posture, greater loss than 20%, self-mutilations, and strange vocalizations.
A habituation phase was performed to reduce the novelty and stress associated with handling and injection. In this habituation phase, all mice received, for two consecutive days, an intraperitoneal (i.p.) saline injection and were then placed into a black Plexiglass open field arena (25 × 25 × 40 cm) under low-light conditions and white noise for 30 min. On the test day, the horizontal locomotor activity (HLA) produced by the tested cathinones was measured as described by, with minor modifications. Briefly, the animals received the corresponding i.p. injection (saline 5 mL kg^−1, 3-F-α-PVP, 4-F-α-PVP, 3-Cl-α-PVP, 4-Cl-α-PVP, 3,4-Cl2-α-PVP, 3-Br-α-PVP or 4-Br-α-PVP 2.5, 10 or 25 mg kg^−1 and were immediately placed in the open field arena with the same conditions of light and noise. HLA was video-monitored for 1 h, and their total travelled distance (in cm) was measured using a specific tracking software (Smart 3.0 Panlab, Barcelona, Spain).
(§2) Data were expressed as mean ± SEM. […] High ratios indicate greater selectivity for DAT.

Swiss CD-1 mice [2] = experiment: Open field test: center vs. periphery (anxiety-like behavior); assay type: in vivo; settings: for acute anxiogenic effect (time in center of open field): 2.5, 10 and 25 mg kg−1 i.p., acute administration
Method: as §1
Open-field experiments are straight-forward tests that evaluate the animals’ activity in response to novelty (or anxiogenic environment) and pharmacological treatments. Each animal was placed into the center of an open field arena, with sufficient height to prevent the animals from escaping (25 cm length × 25 cm width × 40 cm height), and the time spent (in seconds) in the center (8 × 8 cm) or the periphery of the arena was monitored for 60 min (Smart 3.0 Panlab, Barcelona, Spain).
as §2

Swiss CD-1 mice [3] = experiment: Conditioned place preference (CPP); assay type: in vivo; settings: for CPP rewarding effects vs saline: highest dose 25 mg kg−1 i.p.
Method: as §1
A place conditioning paradigm was used to determine the potential of the seven α-PVP derivatives to induce rewarding effects. The apparatus that is used for this test consists of two compartments, with differences in tactile and visual cues, communicated by a central corridor. Conditioned place preference (CPP) was performed as described by. Briefly, CPP was performed in three phases: preconditioning test and conditioning and post-conditioning test. During the preconditioning phase, mice had free access to both compartments during 15 min, and the time spent in each compartment was recorded and monitored (Smart 3.0 Panlab, Barcelona, Spain). During the conditioning phase (8 sessions), access to the corridor was closed, and mice received an i.p. injection of the corresponding α-PVP derivative and were immediately placed into one of the compartments for 20 min. The doses tested are in accordance with the ones used in the HLA experiment. On the alternative session, mice were placed for 20 min in the other compartment after receiving a saline i.p. injection. Mice in the control group received a saline injection in every session. The compartment and session in which mice received the drug was randomized. On the test day (post-conditioning phase), the same conditions as in the pre-conditioning phase applied. A preference score, expressed in seconds, was calculated as the difference between the time spent in the drug-paired compartment in the post-conditioning test minus the time spent in the preconditioning phase.
as §2

hDAT [4] = target: T1, hDAT (Homo sapiens, UniProt Q01959); experiment: Transporter binding assay, [3H]WIN35,428 displacement in HEK293 membranes; set-up: expressed in transfected cells; settings: for hDAT/hSERT Affinity Ratio: ratio of binding affinities at hDAT and hSERT
T1 sequence (Q01959 whole entry): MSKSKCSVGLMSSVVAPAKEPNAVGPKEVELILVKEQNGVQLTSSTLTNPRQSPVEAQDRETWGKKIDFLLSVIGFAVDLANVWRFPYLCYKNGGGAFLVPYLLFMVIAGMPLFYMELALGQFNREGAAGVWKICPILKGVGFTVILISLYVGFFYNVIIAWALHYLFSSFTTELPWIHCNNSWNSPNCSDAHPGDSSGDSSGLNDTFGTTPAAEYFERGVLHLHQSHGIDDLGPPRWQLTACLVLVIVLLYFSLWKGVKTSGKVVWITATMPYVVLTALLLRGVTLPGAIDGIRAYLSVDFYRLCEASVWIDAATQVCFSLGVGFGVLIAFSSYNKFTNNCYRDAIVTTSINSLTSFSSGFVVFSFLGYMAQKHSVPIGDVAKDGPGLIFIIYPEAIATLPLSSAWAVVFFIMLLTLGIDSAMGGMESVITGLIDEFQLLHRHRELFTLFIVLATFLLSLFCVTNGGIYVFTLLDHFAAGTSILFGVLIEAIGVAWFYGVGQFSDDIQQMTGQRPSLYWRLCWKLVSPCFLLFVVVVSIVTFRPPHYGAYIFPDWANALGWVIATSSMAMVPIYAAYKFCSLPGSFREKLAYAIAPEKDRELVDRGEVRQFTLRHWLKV
Method: (§3) To prepare membranes, HEK293 cells expressing monoamine transporters were harvested from 80–90% confluent dishes. In short, cells were washed with ice-cold phosphate buffered saline (PBS) twice. An extra 5 mL of PBS was added, and cells were mechanically detached using a plastic scraper and subsequently pelleted by centrifugation (400× g for 10 min at 4 °C). The resulting pellet was resuspended in hypotonic HME buffer (20 mM HEPES NaOH, 1 mM EDTA, 2 mM MgCl2; pH 7.4) and then subjected to two freeze-thaw cycles in liquid nitrogen and homogenization through sonication at 4 °C. Membranes were collected by centrifugation (40,000× g for 30 min at 4 °C) and resuspended in an appropriate volume of HME buffer. Protein concentration was determined using the Bio-Rad Protein Reagent (Bio Rad Laboratories, Hercules, CA, USA). Membrane preparations were kept at −80 °C.
(hSERT assay, final concentration 3 nM)) diluted in the corresponding reaction buffer, 15 µg of membranes in 100 µL of reaction buffer, and 125 µL of the tested drug dilution. […] This non-specific binding also allows subtracting the binding to other components such as the microfiber filters or membrane lipids from the total binding values. Incubation was performed for 1 h at 22 °C. […] The filters were then placed into vials and scintillation cocktail was added. The trapped radioactivity was quantified by liquid scintillation counting. Specific binding of each drug to the transporter was defined as the difference between total binding (binding buffer in absence of drug) and non-specific binding.
Data were expressed as mean ± SEM.

hSERT [5] = target: T2, hSERT (Homo sapiens, UniProt P31645); experiment: Transporter binding assay, [3H]imipramine displacement in HEK293 membranes; set-up: expressed in transfected cells
T2 sequence (P31645 whole entry): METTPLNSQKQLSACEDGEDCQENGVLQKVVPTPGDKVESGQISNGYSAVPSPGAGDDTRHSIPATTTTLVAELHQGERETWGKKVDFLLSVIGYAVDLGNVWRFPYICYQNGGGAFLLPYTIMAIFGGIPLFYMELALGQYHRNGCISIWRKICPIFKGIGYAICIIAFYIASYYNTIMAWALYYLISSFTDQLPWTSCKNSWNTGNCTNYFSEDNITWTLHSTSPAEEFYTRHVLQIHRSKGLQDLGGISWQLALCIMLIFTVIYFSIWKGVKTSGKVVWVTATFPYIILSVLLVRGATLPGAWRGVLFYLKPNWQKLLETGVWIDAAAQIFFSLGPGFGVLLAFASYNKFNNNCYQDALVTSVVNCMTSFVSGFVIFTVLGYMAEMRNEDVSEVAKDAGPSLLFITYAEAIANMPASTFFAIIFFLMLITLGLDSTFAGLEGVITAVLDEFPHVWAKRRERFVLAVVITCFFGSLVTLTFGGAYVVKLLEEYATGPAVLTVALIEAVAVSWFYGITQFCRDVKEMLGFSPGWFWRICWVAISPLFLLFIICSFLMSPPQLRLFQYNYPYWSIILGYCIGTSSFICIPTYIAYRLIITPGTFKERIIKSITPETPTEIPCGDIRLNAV
Method: as §3
This non-specific binding also allows subtracting the binding to other components such as the microfiber filters or membrane lipids from the total binding values. Incubation was performed for 1 h at 22 °C. […] The filters were then placed into vials and scintillation cocktail was added. The trapped radioactivity was quantified by liquid scintillation counting. Specific binding of each drug to the transporter was defined as the difference between total binding (binding buffer in absence of drug) and non-specific binding.
as §2

hDAT [6] = target: T1, hDAT; experiment: Uptake inhibition assay, [3H]MPP+ uptake in transfected HEK293 cells; settings: for potency at inhibiting DAT relative to cocaine: [3H]MPP+ uptake at hDAT, vs cocaine
hSERT [7] = target: T2, hSERT; experiment: Uptake inhibition assay, [3H]5-HT uptake in transfected HEK293 cells

SMILES | HLA vs saline group (Swiss CD-1 mice [1]) | HLA dose-response at the highest dose (Swiss CD-1 mice [1]; 25 mg kg−1 i.p.) | time in center of open field at the lowest dose (Swiss CD-1 mice [2]; 2.5 mg kg−1 i.p.) | acute anxiogenic effect (time in center of open field) (Swiss CD-1 mice [2]) | CPP rewarding effects vs saline (Swiss CD-1 mice [3]) | Ki (hDAT [4]) | hDAT/hSERT Affinity Ratio (hDAT [4]) | Ki (hSERT [5]) | IC50 (hDAT [6]) | hDAT/hSERT Inhibition Ratio (hDAT [6]) | IC50 (hSERT [7]) | CPP rewarding properties vs saline (Swiss CD-1 mice [3]; lowest dose 2.5 mg kg−1 i.p.) | potency at inhibiting DAT relative to cocaine (hDAT [6]) | duration of the increase in locomotor activity (Swiss CD-1 mice [1]) | time in center of open field at the highest dose (Swiss CD-1 mice [2]; 25 mg kg−1 i.p., effect only at this dose)
CCCC(C(=O)c1cccc(Cl)c1)N1CCCC1 (stereo not drawn) [3-Cl-α-PVP, 3-Chloro-α-Pyrrolidinopentiophenone] | significant effect | ceiling effect | anxiogenic effects | anxiogenic effect | did not induce significant rewarding effects | 13 nM | 1234 | 16400 nM | 349 nM | 95 | 33300 nM | – | – | – | –
CCCC(C(=O)c1cccc(Br)c1)N1CCCC1 (stereo not drawn) [3-Br-α-PVP, 3-Bromo-α-Pyrrolidinopentiophenone] | – | – | – | anxiogenic effect | significant increase of the rewarding effects | 12 nM | 470 | 5600 nM | 117 nM | 341 | 40000 nM | did not show rewarding properties | 2 fold | – | –
CCCC(C(=O)c1ccc(Cl)c(Cl)c1)N1CCCC1 (stereo not drawn) [3,4-Cl-α-PVP, 3,4-Dichloro-α-Pyrrolidinopentiophenone] | – | – | – | anxiogenic effect | significant increase of the rewarding effects | 11 nM | 462 | 4990 nM | 266 nM | 47 | 12700 nM | – | – | – | –
CCCC(C(=O)c1cccc(F)c1)N1CCCC1 (stereo not drawn) [3-F-α-PVP, 3-Fluoro-α-Pyrrolidinopentiophenone] | significant effect | – | – | anxiogenic effect | – | 14 nM | 4540 | 63500 nM | 132 nM | 1819 | > 100000 nM | – | 2 fold | – | –
CCCC(C(=O)c1ccccc1)N1CCCC1 (stereo not drawn) [α-PVP, α-Pyrrolidinopentiophenone] | – | – | – | – | – | 17 nM | 8514 | > 100000 nM | 129 nM | 3418 | > 100000 nM | – | – | – | –
CCCC(C(=O)c1ccc(Cl)cc1)N1CCCC1 (stereo not drawn) [4-Cl-α-PVP, 4-Chloro-α-Pyrrolidinopentiophenone] | – | – | – | anxiogenic effect | did not induce significant rewarding effects | 16 nM | 478 | 7900 nM | 391 nM | 38 | 15200 nM | – | – | < 60 min | –
CCCC(C(=O)c1ccc(Br)cc1)N1CCCC1 (stereo not drawn) [4-Br-α-PVP, 4-Bromo-α-Pyrrolidinopentiophenone] | – | – | – | did not cause acute anxiogenic effects | significant increase of the rewarding effects | 24 nM | 52 | 1250 nM | 156 nM | 148 | 23100 nM | – | 2 fold | < 60 min | –
CCCC(C(=O)c1ccc(F)cc1)N1CCCC1 (stereo not drawn) [4-F-α-PVP, 4-Fluoro-α-Pyrrolidinopentiophenone] | – | – | – | anxiogenic effect | significant increase of the rewarding effects | 49 nM | 1173 | 57900 nM | 154 nM | 1366 | > 100000 nM | – | 2 fold | – | decrease in the time spent in the center
